According to US6328728A, “Composition and method for enhancing electrotransport agent delivery” (Alza Corporation, priority 1997, dated 2001):
Where two headings read alike, the source gives them in different places.

Type: in vivo, male hairless guinea pigs
Conditions: for average plasma calcitonin concentration (given in flux units): second hour/steady state
Protocol: This study was undertaken to assess the effect on the transdermal delivery rate by electrotransport of an agent such as calcitonin (sCT), a protein with an affinity for the surfactant Tween 20 at pH 6.5, by delivering the agent in the presence of Tween 20 from a donor gel.
A customized electrotransport system, and its reservoir matrices and contents were prepared as described below. A low level current of 100 μA cm^-2 was maintained throughout each test by a self contained power module (ALZA Corp., Palo Alto, Calif., Code #84166). The peptide agent salmon calcitonin (sCT, UCB-Bioproducts S.A., Chemin du Foriest, Allend, Belgium) was chosen for delivery by electrotransport. The protein calcitonin has a positive net charge at pH 6.5 and was therefore anodically driven from the positive electrode toward the negative electrode. Three gels were prepared for use with the electrotransport system. The anode gel provided the proper environment for the anodic electrochemical reaction. It was comprised of Bio-Rad resin beads (100-200 mesh, chloride form, Bio-Rad Laboratories, Richmond, Calif.) in 48 mM histidine buffer, pH 6.5, and 0.5% hydroxyethyl cellulose (HEC). The cathode gel provided the proper environment for the cathodic electrochemical reaction and completed the electrical circuit. It was comprised of an L-histidine buffered HEC gel, pH 2.9, and sodium chloride. The donor gel occupied a surface area of 2 cm^2 and was separated from the anode compartment by a 1 Kdalton molecular weight (MW) cut-off membrane (Millipore Corp., Bedford, Mass.). The donor gel was prepared by first mixing 48 mM histidine buffer, pH 6.5, with HEC, vortexing vigorously to completely dissolve the HEC and to ensure homogeneous polymerization of the gel. After a few minutes, either a 10% solution of Tween 20 (Pierce, Rockford, Ill.) or water was added in conjunction with a stock solution of calcitonin and gently mixed into the gel. The amounts of each component were calculated to produce a nominal concentration of 1 mM sCT in a 1% HEC gel of 1 mL volume (with or without Tween 20). The gel was slowly rotated and allowed to equilibrate overnight at 4° C. An aliquot of 275-295 μL of donor gel was weighed and placed in the donor reservoir of the electrotransport system immediately prior to beginning each experiment. The 3 gels were contained in 2 separate structures, with each gel compartment being a punched double-sided adhesive foam ring 0.081 cm (0.032") thick with an outside diameter of 3.2 cm (11/4") and an inside diameter of 1.6 cm (5/8"). The compartment ring containing the cathode gel was open on the skin side. The back side was covered by an electrode sandwich consisting of a 3.2 cm (11/4") diameter release liner cover, a 2.2 cm (13/15") diameter punch of electrical conducting adhesive tape, a 11 cm (41/2") silver wire that was slightly coiled at one end, with the coil placed at the center of the electrode leading out, and a 1.6 cm (5/8") diameter punch of AgCl PIB electrode film. The donor gel compartment was also open on the skin side, but the back side was covered by a 2.2 cm (13/15") diameter punch of a 1,000 Dalton MW cut-off membrane. The anode compartment was then stacked on top of the donor compartment and covered with an electrode sandwich identical to the cathode, except that the AgCl PIB electrode film was replaced with a 0.025 mm thick silver (Ag) foil (Johnson Mathey Catalog Co., Ward Hill, Mass.). Both the cathode and the donor compartments also included adhesive washers (In Vivo Metric, Healdsberg, Calif.) with an outside diameter of 3.2 cm (11/4") and an inside diameter of 1.6 cm (5/8") between the skin and the bottom of the compartment to improve skin adhesion. All components of the system were punched out in advance and assembled on the day of the experiment. […]

Which “time to approach steady state calcitonin levels” value (active current groups (1) and (2)) does the source give for Salmon Calcitonin [reference compound] here?
The value was “By the second hour”.

And the “average plasma calcitonin concentration (given in flux units)” value (active electrotransport 100 μA cm^-2, 1 mM sCT gel pH 6.5, with Tween 20 (group 1))?
Its value is 5.4 μg sCT cm^-2 h^-1.

And the “average plasma calcitonin concentration (given in flux units)” value (active electrotransport 100 μA cm^-2, 1 mM sCT gel pH 6.5, without Tween 20 (group 2))?
Its value is 1.2 μg sCT cm^-2 h^-1.

And the “calcitonin plasma concentration, time course” value (active electrotransport groups (1) and (2), first hour)?
Its value is “increased rapidly”.

And the “average plasma calcitonin concentration with Tween 20 relative to without Tween 20” value (active electrotransport, group 1 vs. group 2, second hour)?
The value was 3 fold.

And the “calcitonin plasma profiles, group (1) with Tween 20 vs group (2) without (statistical comparison)” value (active electrotransport, p<0.05, ANOVA)?
Its value is “significantly different from one another”.

And the “calcitonin plasma levels, passive systems” value (passive delivery (control group 3, with and without Tween 20), first 4 hrs.)?
The value was “continued to lack significant calcitonin plasma levels”.

What about the “calcitonin plasma levels, passive systems” value (passive delivery (no current), first hour) of the same substance?
Its value is “low and remained at or slightly above the limit of detection”.
